Reference: paper PMC2248166, “Quantitative peptide binding motifs for 19 human and mouse MHC class I molecules derived using positional scanning combinatorial peptide libraries” (Immunome Research, 2008)

These sequences were tested against HLA B*3501 (Homo sapiens, UniProt P01889, A329T/A93T/A95T/C349S/D201E/D98Y/E176V/E187L/E204Q/E69T/I218V/K202T/L119I/Q94N/R155S/R180L/S121R/S35A/S48A/T118I/V127L/V306I/V36M/Y140S/Y91F) (assay: not given).
Assay type: binding

Sequence	Normalized average relative binding affinity(ARB)
XXXXXXSXX [3064.0136]	0.22
XXXXXXTXX [3064.0137]	0.27
XXXXXXVXX [3064.0138]	0.57
XXXXXXWXX [3064.0139]	1.0
XXXXXXXAX [3064.0141]	1.0
XXXXXXXCX [3064.0142]	0.087

What follows are sequences tested against HLA B*1503 (Homo sapiens, UniProt P01889, A329T/A93T/A95T/C349S/D201E/D98Y/E187L/E204Q/K202T/N87E/Q94N/R155S/R180L/S121R/S35A/V306I/V36M/Y140S/Y91S) (assay: biochemical).
Assay type: binding

Sequence	Normalized average relative binding affinity(ARB)
XXXXXXSXX [3064.0136]	0.32
XXXXXXTXX [3064.0137]	0.16
XXXXXXVXX [3064.0138]	0.19
XXXXXXWXX [3064.0139]	0.15
XXXXXXXAX [3064.0141]	0.27
XXXXXXXCX [3064.0142]	0.11

The sequences below were run against H-2 K^k (Mus musculus, UniProt P04223) (assay: not given).
H-2 K^k, sequence (P01887 21-119): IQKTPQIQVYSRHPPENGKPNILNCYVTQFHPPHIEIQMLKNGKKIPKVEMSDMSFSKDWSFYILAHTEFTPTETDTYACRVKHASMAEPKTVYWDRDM
H-2 K^k, sequence (P04223 22-369): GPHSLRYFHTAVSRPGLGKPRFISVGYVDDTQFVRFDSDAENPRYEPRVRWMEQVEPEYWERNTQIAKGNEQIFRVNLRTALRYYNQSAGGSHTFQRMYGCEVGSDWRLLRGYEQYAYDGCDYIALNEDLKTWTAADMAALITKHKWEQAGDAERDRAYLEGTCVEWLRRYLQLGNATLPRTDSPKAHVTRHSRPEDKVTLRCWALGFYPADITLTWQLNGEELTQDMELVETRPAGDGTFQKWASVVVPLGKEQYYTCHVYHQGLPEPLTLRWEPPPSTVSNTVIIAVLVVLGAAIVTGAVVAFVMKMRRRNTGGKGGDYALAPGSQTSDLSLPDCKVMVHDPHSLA
Assay type: binding

Sequence	Normalized average relative binding affinity(ARB)
XXXXXXSXX [3064.0136]	0.16
XXXXXXTXX [3064.0137]	0.061
XXXXXXVXX [3064.0138]	0.079
XXXXXXWXX [3064.0139]	0.064
XXXXXXXAX [3064.0141]	0.82
XXXXXXXCX [3064.0142]	0.37

These sequences were tested against HLA B*5801 (Homo sapiens, UniProt P01889, A329T/C349S/D201E/D98Y/E176V/E187L/E204Q/E69T/G107R/I218V/I90N/K202T/L105A/L119I/N104I/N87E/Q89R/Q94S/R106L/R155S/R180L/R86G/S101N/S121R/S35A/S48A/T118I/V127L/V306I/V36M/Y140S/Y91M) (assay: not given).
Assay type: binding

Sequence	Normalized average relative binding affinity(ARB)
XXXXXXSXX [3064.0136]	0.14
XXXXXXTXX [3064.0137]	0.28
XXXXXXVXX [3064.0138]	0.53
XXXXXXWXX [3064.0139]	0.79
XXXXXXXAX [3064.0141]	0.14
XXXXXXXCX [3064.0142]	0.18

Each sequence was assayed against HLA B*5301 (Homo sapiens, UniProt P01889, A329T/A93T/A95T/C349S/D201E/D98Y/E176V/E187L/E204Q/E69T/G107R/I218V/K202T/L105A/L119I/N104I/Q94N/R106L/R155S/R180L/S101N/S121R/S35A/S48A/T118I/V127L/V306I/V36M/Y140S/Y91F) (assay: not given).
Assay type: binding

Sequence	Normalized average relative binding affinity(ARB)
XXXXXXSXX [3064.0136]	0.087
XXXXXXTXX [3064.0137]	0.081
XXXXXXVXX [3064.0138]	0.32
XXXXXXWXX [3064.0139]	0.31
XXXXXXXAX [3064.0141]	0.80
XXXXXXXCX [3064.0142]	0.078

The sequences below were run against HLA B*1501 (Homo sapiens, UniProt P01889, A329T/A93T/A95T/C349S/D201E/D98Y/E187L/E204Q/E69M/E70A/K202T/N87E/Q94N/R155S/R180W/S121R/S35A/S48A/V306I/V36M/Y140S/Y91S) (assay: biochemical).
Assay type: binding

Sequence	Normalized average relative binding affinity(ARB)
XXXXXXSXX [3064.0136]	0.65
XXXXXXTXX [3064.0137]	0.49
XXXXXXVXX [3064.0138]	0.56
XXXXXXWXX [3064.0139]	0.31
XXXXXXXAX [3064.0141]	0.36
XXXXXXXCX [3064.0142]	0.18

What follows are sequences tested against HLA B*5101 (Homo sapiens, UniProt P01889, A329T/A93T/A95T/C349S/D138N/D201E/D98Y/E187L/E204Q/E69T/G107R/I218V/K202T/L105A/L119W/N104I/Q94N/R106L/R155S/R180L/S101N/S121T/S35A/S48A/V306I/V36M/Y195H/Y91F) (assay: not given).
Assay type: binding

Sequence	Normalized average relative binding affinity(ARB)
XXXXXXSXX [3064.0136]	0.51
XXXXXXTXX [3064.0137]	0.58
XXXXXXVXX [3064.0138]	0.57
XXXXXXWXX [3064.0139]	0.91
XXXXXXXAX [3064.0141]	0.52
XXXXXXXCX [3064.0142]	0.38

These sequences were tested against HLA B*5401 (Homo sapiens, UniProt P01889, A329T/C349S/D138N/D201E/E176V/E187T/E204Q/E69G/I76V/K202T/L119W/R155S/R180L/S121T/S35A/S48A/V127L/V306I/V36M/Y140L) (assay: not given).
Assay type: binding

Sequence	Normalized average relative binding affinity(ARB)
XXXXXXSXX [3064.0136]	0.098
XXXXXXTXX [3064.0137]	0.33
XXXXXXVXX [3064.0138]	0.77
XXXXXXWXX [3064.0139]	0.22
XXXXXXXAX [3064.0141]	0.50
XXXXXXXCX [3064.0142]	0.74

Each sequence was assayed against H-2 K^d (Mus musculus, UniProt P01902) (assay: not given).
H-2 K^d, sequence (P01887 21-119): as the sequence (P01887 21-119) above
H-2 K^d, sequence (P01902 22-368): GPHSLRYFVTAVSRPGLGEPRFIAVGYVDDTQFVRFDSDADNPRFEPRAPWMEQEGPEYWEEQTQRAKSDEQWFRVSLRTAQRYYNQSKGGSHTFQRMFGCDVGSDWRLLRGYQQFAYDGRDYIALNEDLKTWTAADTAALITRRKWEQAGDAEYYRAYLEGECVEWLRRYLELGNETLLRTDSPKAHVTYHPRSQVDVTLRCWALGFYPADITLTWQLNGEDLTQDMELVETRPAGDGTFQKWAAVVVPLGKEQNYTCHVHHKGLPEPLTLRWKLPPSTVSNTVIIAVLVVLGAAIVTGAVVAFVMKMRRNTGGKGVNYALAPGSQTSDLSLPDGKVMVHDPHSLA
Assay type: binding

Sequence	Normalized average relative binding affinity(ARB)
XXXXXXSXX [3064.0136]	0.92
XXXXXXTXX [3064.0137]	1.0
XXXXXXVXX [3064.0138]	0.13
XXXXXXWXX [3064.0139]	0.056
XXXXXXXAX [3064.0141]	1.0
XXXXXXXCX [3064.0142]	0.28

These sequences were tested against HLA B*0801 (Homo sapiens, UniProt P01889, A93T/A95T/D138N/E176V/E187T/K202T/Q94N/R180D/S35A/V36M/Y33D/Y91F) (assay: biochemical).
Assay type: binding

Sequence	Normalized average relative binding affinity(ARB)
XXXXXXSXX [3064.0136]	0.35
XXXXXXTXX [3064.0137]	0.46
XXXXXXVXX [3064.0138]	0.55
XXXXXXWXX [3064.0139]	0.53
XXXXXXXAX [3064.0141]	0.95
XXXXXXXCX [3064.0142]	0.22

These sequences were tested against HLA A*3001 (Homo sapiens, UniProt P04439, D140H/D185E/E176W/F33S/G80R/H175R/K168Q/R138E/R41S) (assay: biochemical).
Assay type: binding

Sequence	Normalized average relative binding affinity(ARB)
XXXXXXSXX [3064.0136]	0.042
XXXXXXTXX [3064.0137]	0.11
XXXXXXVXX [3064.0138]	0.19
XXXXXXWXX [3064.0139]	0.16
XXXXXXXAX [3064.0141]	0.53
XXXXXXXCX [3064.0142]	0.11

Each sequence was assayed against HLA A*6802 (Homo sapiens, UniProt P04439, A269V/D140Y/D185E/E176V/E277Q/E87N/F33Y/G231S/I121R/I166T/I218V/L180W/L300P/L318F/N151K/P208A/P217A/Q86R/R138H/R169H/S129P/T345S/V36M) (assay: not given).
Assay type: binding

Sequence	Normalized average relative binding affinity(ARB)
XXXXXXSXX [3064.0136]	0.40
XXXXXXTXX [3064.0137]	0.60
XXXXXXVXX [3064.0138]	0.80
XXXXXXWXX [3064.0139]	1.0
XXXXXXXAX [3064.0141]	1.0
XXXXXXXCX [3064.0142]	0.19

What follows are sequences tested against HLA A*3201 (Homo sapiens, UniProt P04439, A270S/D101S/D185E/E176V/E277Q/F133L/G103R/G107R/G231S/H175R/I121M/I218V/I322F/K168Q/L105A/L300P/L318F/M331R/P208A/P217A/Q94H/R106L/R138Q/S129P/T104I/T323A/T345S/V100E/V321M/V358M) (assay: biochemical).
Assay type: binding

Sequence	Normalized average relative binding affinity(ARB)
XXXXXXSXX [3064.0136]	0.14
XXXXXXTXX [3064.0137]	0.14
XXXXXXVXX [3064.0138]	1.0
XXXXXXWXX [3064.0139]	0.48
XXXXXXXAX [3064.0141]	0.99
XXXXXXXCX [3064.0142]	0.11

Each sequence was assayed against H-2 D^b (Mus musculus, UniProt P01899) (assay: not given).
H-2 D^b, sequence (P01887 21-119): as the sequence (P01887 21-119) above
H-2 D^b, sequence (P01899 25-362): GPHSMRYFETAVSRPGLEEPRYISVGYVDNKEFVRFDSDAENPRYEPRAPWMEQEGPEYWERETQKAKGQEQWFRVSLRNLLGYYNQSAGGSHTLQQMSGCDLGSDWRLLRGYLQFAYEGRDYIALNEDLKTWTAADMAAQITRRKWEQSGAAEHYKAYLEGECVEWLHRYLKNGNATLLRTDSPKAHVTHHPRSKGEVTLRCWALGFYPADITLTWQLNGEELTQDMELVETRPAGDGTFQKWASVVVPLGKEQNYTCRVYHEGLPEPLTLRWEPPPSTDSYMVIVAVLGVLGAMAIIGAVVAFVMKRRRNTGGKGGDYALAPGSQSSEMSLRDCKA
Assay type: binding

Sequence	Normalized average relative binding affinity(ARB)
XXXXXXSXX [3064.0136]	0.34
XXXXXXTXX [3064.0137]	0.67
XXXXXXVXX [3064.0138]	0.57
XXXXXXWXX [3064.0139]	0.31
XXXXXXXAX [3064.0141]	0.50
XXXXXXXCX [3064.0142]	0.12

These sequences were tested against HLA B*5802 (Homo sapiens, UniProt P01889, A329T/C349S/D201E/D98Y/E176V/E187L/E204Q/E69T/G107R/I218V/I90N/K202T/L105A/N104I/N87E/Q89R/Q94S/R106L/R155S/R180L/R86G/S101N/S121W/S35A/S48A/V127L/V306I/V36M/Y140S/Y91M) (assay: not given).
Assay type: binding

Sequence	Normalized average relative binding affinity(ARB)
XXXXXXSXX [3064.0136]	0.044
XXXXXXTXX [3064.0137]	0.057
XXXXXXVXX [3064.0138]	0.073
XXXXXXWXX [3064.0139]	0.18
XXXXXXXAX [3064.0141]	0.31
XXXXXXXCX [3064.0142]	0.21

These sequences were tested against H-2 D^d (Mus musculus, UniProt P01900) (assay: not given).
H-2 D^d, sequence (P01900 whole entry, looked up): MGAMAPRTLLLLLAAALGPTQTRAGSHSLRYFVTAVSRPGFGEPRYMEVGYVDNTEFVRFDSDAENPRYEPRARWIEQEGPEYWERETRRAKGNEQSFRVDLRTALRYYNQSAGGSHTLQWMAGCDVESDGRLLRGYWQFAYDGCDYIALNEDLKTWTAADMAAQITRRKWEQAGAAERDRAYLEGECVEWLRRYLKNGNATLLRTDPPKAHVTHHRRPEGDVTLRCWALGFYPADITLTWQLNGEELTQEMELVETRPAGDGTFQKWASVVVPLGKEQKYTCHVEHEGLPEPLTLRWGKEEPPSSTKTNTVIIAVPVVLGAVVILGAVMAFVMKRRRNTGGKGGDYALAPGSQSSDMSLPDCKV
Assay type: binding

Sequence	Normalized average relative binding affinity(ARB)
XXXXXXSXX [3064.0136]	0.038
XXXXXXTXX [3064.0137]	0.029
XXXXXXVXX [3064.0138]	0.045
XXXXXXWXX [3064.0139]	0.044
XXXXXXXAX [3064.0141]	0.93
XXXXXXXCX [3064.0142]	0.78
